The IC50 is the concentration that inhibits the measured activity by half. The Ki is a measure of affinity in units of concentration, obtained from inhibition or displacement. Higher therefore signals lower affinity.

The source of these data is ChEMBL document CHEMBL6109109, “Fatty acid binding protein 5 inhibitors as novel anticancer agents against metastatic castration-resistant prostate cancer” (Bioorg Med Chem, 2025).

The test system of data set [1] is PC-3. Nature of the data set: Cytotoxicity against human PC-3 cells assessed as cell growth inhibition at 0.0001 uM measured after 72 hrs by MTT assay relative to control. Format: functional. As to conditions: read-out: GI. (In general: Tetrazolium dyes change colour on reduction, which living cells bring about.)
Data set [2] has as its system PC-3. Nature of the data set: Cytotoxicity against human PC-3 cells assessed as cell growth inhibition at 1 uM measured after 72 hrs by MTT assay relative to control. As to conditions: read-out: GI. Format: functional.
The nature of data set [3]: Cytotoxicity against mouse RCaP cells assessed as cell growth inhibition at 0.1 uM measured after 72 hrs by MTT assay relative to control. Format: functional. The note with it: read-out: GI.
Data set [4] has as its system PC-3. As to the kind of experiment: Cytotoxicity against human PC-3 cells assessed as cell growth inhibition at 0.00001 uM measured after 72 hrs by MTT assay relative to control. Format: functional. The note with it: dose 1e-05 µM, read-out: GI.
A short description of data set [5]: Cytotoxicity against mouse RCaP cells assessed as cell growth inhibition at 0.00001 uM measured after 72 hrs by MTT assay relative to control. Format: functional. As to conditions: dose 1e-05 µM, read-out: GI.
The nature of data set [6]: Cytotoxicity against mouse RCaP cells assessed as cell growth inhibition at 0.01 uM measured after 72 hrs by MTT assay relative to control. Format: functional. The note with it: read-out: GI.
The nature of data set [7]: Cytotoxicity against mouse RCaP cells assessed as cell growth inhibition at 0.0001 uM measured after 72 hrs by MTT assay relative to control. Format: functional. As to conditions: read-out: GI.
Data set [8] concerns PC-3. Nature of the data set: Cytotoxicity against human PC-3 cells assessed as cell growth inhibition at 0.001 uM measured after 72 hrs by MTT assay relative to control. Format: functional. As to conditions: read-out: GI.
Data set [9] concerns PC-3. Nature of the data set: Cytotoxicity against human PC-3 cells assessed as cell growth inhibition at 10 uM measured after 72 hrs by MTT assay relative to control. The note with it: read-out: GI. Format: functional.
A short description of data set [10]: Cytotoxicity against mouse RCaP cells assessed as cell growth inhibition at 10 uM measured after 72 hrs by MTT assay relative to control. Format: functional. As to conditions: read-out: GI.
Data set [11] concerns PC-3. Nature of the data set: Cytotoxicity against human PC-3 cells assessed as cell growth inhibition at 0.1 uM measured after 72 hrs by MTT assay relative to control. As to conditions: read-out: GI. Format: functional.
Data set [12] can be described thus: Cytotoxicity against mouse RCaP cells assessed as cell growth inhibition at 0.001 uM measured after 72 hrs by MTT assay relative to control. Format: functional. As to conditions: read-out: GI.
The subject of data set [13] is PC-3. Nature of the data set: Cytotoxicity against human PC-3 cells assessed as cell growth inhibition at 0.01 uM measured after 72 hrs by MTT assay relative to control. As to conditions: read-out: GI. Format: functional.
Data set [14] in a line: Cytotoxicity against mouse RCaP cells assessed as cell growth inhibition at 1 uM measured after 72 hrs by MTT assay relative to control. Format: functional. As to conditions: read-out: GI.
Data set [15] in a line: Cytotoxicity against mouse RCap cells assessed as reduction in cell viability measured after 72 hrs by MTT assay. Format: functional, cell-based.
In data set [16] the test system is PC-3. Nature of the data set: Induction of apoptosis in human PC-3 cells assessed as viable cells at 15 uM measured after 72 hrs by Annexin V-FITC/propidium iodide staining based FACS analysis (reference value: 97.62%). Format: functional. The note with it: read-out: Activity.
For data set [17], the system named is PC-3. Nature of the data set: Cytotoxicity against human PC-3 cells assessed as reduction in cell viability measured after 72 hrs by MTT assay. Format: functional, cell-based. As to conditions: PC-3, 72 h.
A short description of data set [18]: Cytotoxicity against human WI-38 cells assessed as reduction in cell viability measured after 72 hrs by MTT assay. Format: toxicity, cell-based.
Data set [19] concerns PC-3. As to the kind of experiment: Induction of apoptosis in human PC-3 cells assessed as late apoptotic cells at 15 uM measured after 72 hrs by Annexin V-FITC/propidium iodide staining based FACS analysis (reference value: 1.73%). Format: functional.
Data set [20] relates to PC-3. Nature of the data set: Induction of apoptosis in human PC-3 cells assessed as necrotic cells at 15 uM measured after 72 hrs by Annexin V-FITC/propidium iodide staining based FACS analysis (reference value: 0.11%). Format: functional.
For data set [21], the system named is PC-3. As to the kind of experiment: Induction of apoptosis in human PC-3 cells assessed as early apoptotic cells at 15 uM measured after 72 hrs by Annexin V-FITC/propidium iodide staining based FACS analysis (reference value: 0.54%). Format: functional. For orientation: Flow cytometry measures light scatter and fluorescence of single cells or particles in a stream.

Data set [22] can be described thus: Binding affinity to FABP5 (unknown origin). Set-up: species or system Homo sapiens.

`CC[C@@]1(O)C(=O)OCc2c1cc1n(c2=O)Cc2cc3c(CN(C)C)c(O)ccc3nc2-1` [TOPOTECAN]: the inhibition of growth at 0.0001 µM is -2.77% in the data set with PC-3 [1] and -3.2% in [7]. Besides, the inhibition of growth at 1 µM in the data set on PC-3 [2] worked out at 67.1%; in data set [14], 93.6%. For the same compound, the inhibition of growth at 0.1 µM was 66% in [3] and 55.9% with PC-3 [11]. For the same compound, the inhibition of growth at 10 pM was -4.4% in the data set on PC-3 [4] and -1.57% in [5]. The inhibition of growth at 0.01 µM in [6] is 9.17%; with PC-3 [13], 20.1%. For the same compound, the results for the inhibition of growth at 0.001 µM (in the data set with PC-3 [8]; in [12]) were 1.13% and 0.1%, respectively. Further, the inhibition of growth at 10 µM in the data set on PC-3 [9] was 69.2%; in data set [10], 89.6%.
Turning to `O=C(O)[C@H]1[C@@H](c2ccccc2)[C@H](C(=O)Oc2cccc3ccccc23)[C@@H]1c1ccccc1`, the concentration for half-maximal inhibition (IC50) in [15] is 33.4 µM; in the data set with PC-3 [17], 15.9 µM. In addition, the viability at 15 µM in the data set on PC-3 [16] was 95.4%. For the same compound, the half-maximal inhibitory concentration (IC50) at 72 h in [18] was found to be 83.3 µM. Also, the Activity amounted to 3.13% in the data set with PC-3 [19], 0.21% in the data set on PC-3 [20] and 1.22% in the data set on PC-3 [21].
With `COc1ccccc1[C@H]1[C@H](C(=O)O)[C@H](c2ccccc2OC)[C@@H]1C(=O)Oc1cccc(-c2cccc3c2OCO3)c1`, the values for the half-maximal inhibitory concentration (IC50) (in [15]; in the data set on PC-3 [17]) were 29 µM and 15.7 µM, respectively. Besides, the concentration for half-maximal inhibition (IC50) at 72 h in [18] worked out at 49 µM. The same compound registered a Ki in [22] of 1.26 µM.
For `COc1ccccc1[C@H]1[C@H](C(=O)O)[C@H](c2ccccc2OC)[C@H]1C(=O)Oc1cccc(-c2ccc(F)cc2)c1` the same measures were 12.3 µM, 10.8 µM, 29.2 µM and 1.03 µM.
For `COc1ccccc1[C@H]1[C@H](C(=O)O)[C@H](c2ccccc2OC)[C@H]1C(=O)OCCc1ccccc1-c1ccccc1` the same measures were 14.2 µM, 11.9 µM, 51 µM and 0.51 µM.
In the case of `COc1ccccc1[C@H]1[C@H](C(=O)O)[C@H](c2ccccc2OC)[C@@H]1C(=O)Oc1cccc(-c2ccc(F)cc2)c1`, the half-inhibitory concentration (IC50) is 19 µM in data set [15] and 14.6 µM with PC-3 [17]. For the same compound, the half-maximal inhibitory concentration (IC50) at 72 h in data set [18] was determined as 57.5 µM. The compound further returned a Ki in data set [22] of 1.77 µM.
Take `O=C(O)[C@H]1[C@H](c2ccccc2)[C@@H](C(=O)Oc2cccc(-c3ccc4c(c3)OCCO4)c2)[C@H]1c1ccccc1`: the IC50 is 13.6 µM in [15] and 9.5 µM in the data set with PC-3 [17]. In data set [18], the half-maximal inhibitory concentration (IC50) at 72 h amounted to 31.8 µM. For the same compound, in [22], the affinity, expressed as Ki, was 2.47 µM.
For `O=C1CCc2cc(-c3cccc(OC(=O)[C@H]4[C@@H](c5ccccc5)[C@H](C(=O)O)[C@@H]4c4ccccc4)c3)ccc2N1`, the figures for the concentration for half-maximal inhibition (IC50) (in data set [15]; with PC-3 [17]) were 12.6 µM and 11.4 µM, respectively. Further, the 50% inhibitory concentration (IC50) at 72 h in data set [18] was 42.8 µM. The same compound came in with a Ki in data set [22] of 0.74 µM.
On to `C#Cc1ccc(-c2ccc(C#N)cc2)cc1OC(=O)[C@H]1[C@@H](c2ccccc2OC)[C@H](C(=O)O)[C@@H]1c1ccccc1OC`, for which the IC50 in data set [15] was 17.4 µM; with PC-3 [17], 8.89 µM. For the same compound, the IC50 at 72 h in data set [18] is above 200 µM. This compound had an inhibition constant (Ki) in [22] of 1.02 µM.
For `O=C(O)[C@H]1[C@H](c2ccccc2)[C@@H](C(=O)Oc2cc(-c3ccc4c(c3)OCO4)ccc2-c2ccccc2)[C@H]1c1ccccc1` the same measures were 5.53 µM, 9.76 µM, 22.4 µM and 1.17 µM.
As for `O=C(O)[C@@H]1[C@@H](c2ccccc2)[C@H](C(=O)OCc2cccc3ccccc23)[C@H]1c1ccccc1`, the IC50 is 23.9 µM in data set [15] and 13.1 µM in the data set on PC-3 [17]. Further, the IC50 at 72 h in data set [18] was determined as 27.1 µM. The affinity in data set [22] corresponds to a Ki of 5.08 µM.
On the same counts, the results for `COc1ccccc1[C@H]1[C@H](C(=O)O)[C@H](c2ccccc2OC)[C@H]1C(=O)Oc1cccc(-c2ccc(C#N)cc2)c1` are 19.1 µM, 8.17 µM, 26.1 µM and 1.74 µM.
On to `COc1ccccc1[C@H]1[C@H](C(=O)O)[C@H](c2ccccc2OC)[C@H]1C(=O)Oc1cc(-c2ccc3c(c2)OCO3)ccc1-c1cncnc1`, for which the results for the half-maximal inhibitory concentration (IC50) (in [15]; in the data set with PC-3 [17]) were 20.5 µM and 10.6 µM, respectively. Also, the IC50 at 72 h in [18] came to 66.4 µM. In data set [22], this compound displayed a Ki of 0.64 µM.
For `COc1ccccc1[C@H]1[C@H](C(=O)O)[C@H](c2ccccc2OC)[C@H]1C(=O)Oc1cccc(-c2cccc3c2OCO3)c1`, the half-inhibitory concentration (IC50) was determined as 19.5 µM in [15] and 12.4 µM in the data set on PC-3 [17]. Besides, the IC50 at 72 h in [18] was 35.1 µM. In data set [22], this compound registered a Ki of 0.41 µM.
As to `COc1ccccc1[C@H]1[C@H](C(=O)O)[C@H](c2ccccc2OC)[C@H]1C(=O)Oc1cc(-c2ccc3c(c2)OCO3)ccc1Br`, the IC50 in data set [15] is 8.48 µM; in the data set on PC-3 [17], 10.4 µM. For the same compound, the IC50 at 72 h in data set [18] stood at 15.6 µM. Besides, in [22], the affinity, expressed as Ki, was 0.35 µM.
Regarding `COc1ccccc1[C@H]1[C@H](C(=O)O)[C@H](c2ccccc2OC)[C@H]1C(=O)Oc1cc(-c2ccc(C#N)cc2)ccc1CC#N`, the values for the IC50 (in [15]; in the data set on PC-3 [17]) were 12.4 µM and 6.39 µM, respectively. Moreover, the half-maximal inhibitory concentration (IC50) at 72 h in [18] turned out to be 25.4 µM. For the same compound, in data set [22], the Ki stood at 0.77 µM.
